Patent publication US20110166066A1, “CATESTATIN (CST) AND ITS VARIANTS FOR TREATMENT OF CARDIOVASCULAR AND METABOLIC DISORDERS” (priority 2008, published 2011)
Where two headings read alike, the source gives them in different places. No end group written: not given here.

How the values were obtained:
[1] = test system: Langendorff perfused rat heart; assay: Langendorff perfused rat heart, basal conditions: concentration-response of catestatin peptides
Text: Animals-Male Wistar rats (Morini, Bologna, Italy S.P.A.) weighing 180-250 g were housed (three per cage) in a ventilated cage rack system under standard conditions. Animals had food and water access ad libitum. The investigation conforms to the Guide for the Care and Use of Laboratory Animals, according to NIH Publication No. 85-23, revised 1996. Isolated heart preparation-Rats were anesthetized with ethyl carbamate (2 g/Kg rat, i.p.), the hearts rapidly excised and then transferred in ice-cold buffered Krebs-Henseleit solution (KHs). As previously described (23), the aorta was immediately cannulated with a glass cannula and connected to Langendorff apparatus to start perfusion at constant flow-rate (12 ml/min). Briefly, the apex of the left ventricle (LV) was pierced to avoid fluid accumulation. A water-filled latex balloon, connected to a pressure transducer ([…], Inc. USA), was inserted through mitral valve into the LV allowing isovolumic contractions and continuous mechanical parameters recording. Another pressure transducer located just above the aorta recorded coronary pressure (CP). […] Hemodynamic parameters were assessed using a PowerLab data acquisition system and analysed using Chart software (both purchased by ADInstruments, Basile, Italy). […] Curve fitting was accomplished in the program Kaleidagraph (Synergy Software, Reading, Pa.). Peptide EC50 and IC50 values were interpolated as the concentration that achieved 50% stimulation and inhibition, respectively. For analysis of phosphorylated proteins, levels were quantified using Bio-Rad QuantifyOne and volumes of phosphorylated proteins were divided by the levels of non-phosphorylated proteins to calculate fold activation. Stimulation of protein activity was expressed as fold increase over vehicle-treated control. The means and S.E.M. were calculated for each treatment. Multiple comparisons were made using either one-way ANOVA followed by Bonferroni's post-hoc test or two-way ANOVA. Statistical significance was concluded at p<0.05. Statistics were computed with the program InStat (GraphPad Software, Inc., San Diego, Calif.).

[2] = test system: WT and Chga knockout (KO) mice; assay: BP and HR by telemetry in immobilization stress, conscious mice; format: in vivo
Text: Animals. Chga knockout (KO) mice and their wild-type (WT) littermates were generated as described (13). All animals were housed on a 12 hr light dark cycle and fed a standard rodent chow. The Animal Care and Use Committee of University of California at San Diego approved all protocols for animal use and euthanasia in accordance with National Institute of Health guidelines. Both WT and KO mice (5-6 month old) in this study were from mixed (129 SvJ and C57BL/6) genetic background.
Conscious mice. Measurement of BP and HR in immobilization stress-induced telemetered mice: BP & HR were measured by telemetry as described previously (13). The experiments were initiated 10 days after the surgery. Immobilization stress was initiated by placing mice in restrainer (Braintree Scientific Inc, Braintree, Mass.) at 10:00 AM and kept for 2 hrs for continuous recording of BP and HR by telemetry followed by recovery from stress in home cages for 2 hrs. CST was injected (40 μg/g bw ip) 30 minutes before stress induction to explore the role of CST in stress response.

[3] = test system: Langendorff perfused rat heart; assay: Isoproterenol stimulated Langendorff heart preparations
Experimental: Isoproterenol stimulated preparations—Cardiac preparations were stabilized for 20 min with KHs and then perfused with 5 nM ISO for 10 min. ISO was washed-out with KHs. After returning to control conditions, each heart was perfused with KHs containing a single concentration of WT-Cts […] or G364S-Cts (200 nM) with 5 nM ISO for a further 10 min.
To further describe the antagonistic action of either WT-Cts (33 nM), P370L-Cts (110 nM) or G364S-Cts (200 nM) against ISO-dependent stimulation, dose-response curves were generated by perfusing the heart preparations with KHs enriched with increasing concentrations of ISO (0.1 nM to 1 μM) alone. These curves were then compared to those obtained by exposing other cardiac preparations to the same perfusion medium containing increasing concentrations of ISO (0.1 nM to 1 μM) plus a single concentration of either WT-Cts (33 nM) or P370L-Cts (110 nM) or G364S-Cts (200 nM).
Statistics—Data are expressed as the mean±SEM. Curve fitting was accomplished in the program Kaleidagraph (Synergy Software, Reading, Pa.). Peptide EC50 and IC50 values were interpolated as the concentration that achieved 50% stimulation and inhibition, respectively. For analysis of phosphorylated proteins, levels were quantified using Bio-Rad QuantifyOne and volumes of phosphorylated proteins were divided by the levels of non-phosphorylated proteins to calculate fold activation. Stimulation of protein activity was expressed as fold increase over vehicle-treated control. The means and S.E.M. were calculated for each treatment. Multiple comparisons were made using either one-way ANOVA followed by Bonferroni's post-hoc test or two-way ANOVA. Statistical significance was concluded at p<0.05. Statistics were computed with the program InStat (GraphPad Software, Inc., San Diego, Calif.).
To characterize the inhibitory action of either WT-CST (11, 33 or 110 nM), G364S-CST (200 nM) or P370L-CST (110 nM) toward ISO-dependent stimulation of cardiac function, heart preparations were perfused with KHs containing increasing concentrations of ISO (0.1 nM to 1 μM) either alone or in combination with one of the three CST variants.

## SSMKLSFRARAYGFRGPGPQL [WT-CST, catestatin]
[1]
  EC50: ~12.5 nM
  Time the LVP effect remained stable: 15 min
  Time to maximum effect on LVP after administration: 5 min
[1]; 11 to 200 nM, measured at 10 min, read-out: +(LVdP/dt)max inhibition IC50
  IC50: ~72 nM
[1]; 11 to 200 nM, measured at 10 min, read-out: T/−t increment EC50
  EC50: 60 nM
[1]; 11 to 200 nM, measured at 10 min, read-out: −(LVdP/dt)max decrement IC50
  IC50: 74 nM
[1]; basal
  Concentration of maximum CP response: 200 nM
  Concentration of maximum HR increase: 165 nM
  Effect on CP (coronary pressure): dose-dependent increment
[1]; basal conditions, Table 2
  Activity rank order: Activity: WT-CST > P370L-CST > G364S-CST
  Inotropism: Negative
  Lusitropism: Negative
[1]; basal, WT-Cts significant at 33 nM
  Effect on HR: significantly increased
[1]; single concentration 33 nM, repeated
  Desensitization on repetitive exposure: absence of desensitization
[2]; KO mice
  Heightened HR responses to stress: abolished
  SBP after 1 h of recovery from the stress: brought SBP to WT level
[2]; KO mice, 40 μg/g bw ip
  Basal SBP: decreased
  Stress-induced increments in SBP: attenuated
[2]; KO mice, stress and recovery
  HR AUC: 143340±1889
  SBP AUC: 26639±399
[2]; WT and KO mice
  Basal or stress-induced increments in DBP: no significant effect
[2]; WT mice
  Basal and stress-induced increase in HR: no effect
[2]; WT mice, 40 μg/g bw ip
  Basal SBP: no effect
[2]; WT mice, 40 μg/g bw ip 30 min before stress
  Attenuation of stress-induced increments in SBP: 7.1 mmHg
[3]
  Type of antagonism against ISO: non-competitive type of antagonism
[3]; ISO 5 nM
  Block of ISO-dependent +(LVdP/dT)max: ~90%
  ISO induced coronary dilation: blocked
  ISO-induced positive lusitropism: blocked
  Rank order of potency against ISO: Order of potency: WT-CST > G364S-CST > P370L-CST
[3]; ISO 5 nM, measured at 5 min
  ISO stimulatory effect on LVP: abolished
[3]; Table 3, ISO 5 nM
  Coronary pressure (ISO alone or ISO + peptide): Abolished
  Inotropism (ISO alone or ISO + peptide): Abolished
  Lusitropism (ISO alone or ISO + peptide): Abolished
